# According to PMC12102759 (Protein Science : A Publication of the Protein Society, 2025):
# Like-named read-outs stand apart in the source and are kept apart here.
# Tested on: PABPC1 PABC
# Type: binding, human
# Conditions: DMS-BM library, bait PABPC1 PABC, row aa = residue at this position; for DMS-derived PSSM value, position L4 / DMS-derived PSSM value, position L2: L = wild type; for DMS-derived PSSM value, position E8 / DMS-derived PSSM value, position E10: E = wild type; for DMS-derived PSSM value, position R14 / DMS-derived PSSM value (averaged), position R12: R = wild type; for DMS-derived PSSM value, position S15 / DMS-derived PSSM value (averaged), position S13: S = wild type
# [1] = prey ATXN2, peptide KSTLNPNAKEFNPRSF
# [2] = prey ATXN2, peptide KSTLNPNAKEFNPRSF, N = wild type
# [3] = prey ATXN2, TLNPNAKEFNPRSF(averaged) over the two overlapping peptides, N = wild type
# [4] = prey ATXN2, peptide TLNPNAKEFNPRSFSQ, P = wild type
# [5] = prey ATXN2, TLNPNAKEFNPRSF(averaged) over the two overlapping peptides, T = wild type
# [6] = prey ATXN2, peptide KSTLNPNAKEFNPRSF, A = wild type
# [7] = prey ATXN2, TLNPNAKEFNPRSF(averaged) over the two overlapping peptides, P = wild type
# [8] = prey ATXN2, peptide TLNPNAKEFNPRSFSQ
# [9] = prey ATXN2, peptide KSTLNPNAKEFNPRSF, P = wild type
# [10] = prey ATXN2, TLNPNAKEFNPRSF(averaged) over the two overlapping peptides, F = wild type
# [11] = prey ATXN2, peptide TLNPNAKEFNPRSFSQ, N = wild type
# [12] = prey ATXN2, TLNPNAKEFNPRSF(averaged) over the two overlapping peptides
# [13] = prey ATXN2, peptide TLNPNAKEFNPRSFSQ, F = wild type
# [14] = prey ATXN2, peptide TLNPNAKEFNPRSFSQ, A = wild type
# [15] = prey ATXN2, peptide TLNPNAKEFNPRSFSQ, K = wild type
substance,measurement,setting,value
KSTLNPNAKEFNPRSF L4K (KSTKNPNAKEFNPRSF),"DMS-derived PSSM value, position L4",[1],0
KSTLNPNAKEFNPRSF N5M (KSTLMPNAKEFNPRSF),"DMS-derived PSSM value, position N5",[2],0
TLNPNAKEFNPRSF(averaged) N10Q (TLNPNAKEFQPRSF),"DMS-derived PSSM value (averaged), position N10",[3],0.06161
TLNPNAKEFNPRSFSQ P4T (TLNTNAKEFNPRSFSQ),"DMS-derived PSSM value, position P4",[4],0.02934
TLNPNAKEFNPRSF(averaged) K7G (TLNPNAGEFNPRSF),"DMS-derived PSSM value (averaged), position K7","prey ATXN2, TLNPNAKEFNPRSF(averaged) over the two overlapping peptides, K = wild type",0.008693
TLNPNAKEFNPRSF(averaged) T1D (DLNPNAKEFNPRSF),"DMS-derived PSSM value (averaged), position T1",[5],0.05337
KSTLNPNAKEFNPRSF A8R (KSTLNPNRKEFNPRSF),"DMS-derived PSSM value, position A8",[6],0
TLNPNAKEFNPRSF(averaged) P11F (TLNPNAKEFNFRSF),"DMS-derived PSSM value (averaged), position P11",[7],0.06425
KSTLNPNAKEFNPRSF N7W (KSTLNPWAKEFNPRSF),"DMS-derived PSSM value, position N7",[2],0
KSTLNPNAKEFNPRSF L4I (KSTINPNAKEFNPRSF),"DMS-derived PSSM value, position L4",[1],0
TLNPNAKEFNPRSFSQ E8S (TLNPNAKSFNPRSFSQ),"DMS-derived PSSM value, position E8",[8],0.09805
TLNPNAKEFNPRSF(averaged) A6R (TLNPNRKEFNPRSF),"DMS-derived PSSM value (averaged), position A6","prey ATXN2, TLNPNAKEFNPRSF(averaged) over the two overlapping peptides, A = wild type",0
TLNPNAKEFNPRSF(averaged) N10K (TLNPNAKEFKPRSF),"DMS-derived PSSM value (averaged), position N10",[3],0.01006
KSTLNPNAKEFNPRSF P13R (KSTLNPNAKEFNRRSF),"DMS-derived PSSM value, position P13",[9],0
TLNPNAKEFNPRSFSQ P11G (TLNPNAKEFNGRSFSQ),"DMS-derived PSSM value, position P11",[4],0.04287
TLNPNAKEFNPRSF(averaged) F14P (TLNPNAKEFNPRSP),"DMS-derived PSSM value (averaged), position F14",[10],0.03538
TLNPNAKEFNPRSFSQ L2D (TDNPNAKEFNPRSFSQ),"DMS-derived PSSM value, position L2",[8],0
KSTLNPNAKEFNPRSF N5T (KSTLTPNAKEFNPRSF),"DMS-derived PSSM value, position N5",[2],0
TLNPNAKEFNPRSFSQ P4N (TLNNNAKEFNPRSFSQ),"DMS-derived PSSM value, position P4",[4],0.001049
KSTLNPNAKEFNPRSF N7D (KSTLNPDAKEFNPRSF),"DMS-derived PSSM value, position N7",[2],0.07378
KSTLNPNAKEFNPRSF R14K (KSTLNPNAKEFNPKSF),"DMS-derived PSSM value, position R14",[1],0.002275
TLNPNAKEFNPRSFSQ N3A (TLAPNAKEFNPRSFSQ),"DMS-derived PSSM value, position N3",[11],0
KSTLNPNAKEFNPRSF S15Y (KSTLNPNAKEFNPRYF),"DMS-derived PSSM value, position S15",[1],0.02596
TLNPNAKEFNPRSFSQ E8T (TLNPNAKTFNPRSFSQ),"DMS-derived PSSM value, position E8",[8],0.09413
TLNPNAKEFNPRSF(averaged) R12T (TLNPNAKEFNPTSF),"DMS-derived PSSM value (averaged), position R12",[12],0.1269
TLNPNAKEFNPRSF(averaged) S13D (TLNPNAKEFNPRDF),"DMS-derived PSSM value (averaged), position S13",[12],0.02964
KSTLNPNAKEFNPRSF A8Q (KSTLNPNQKEFNPRSF),"DMS-derived PSSM value, position A8",[6],0
TLNPNAKEFNPRSF(averaged) R12W (TLNPNAKEFNPWSF),"DMS-derived PSSM value (averaged), position R12",[12],0.09752
TLNPNAKEFNPRSFSQ L2G (TGNPNAKEFNPRSFSQ),"DMS-derived PSSM value, position L2",[8],0
TLNPNAKEFNPRSF(averaged) R12E (TLNPNAKEFNPESF),"DMS-derived PSSM value (averaged), position R12",[12],0.01393
KSTLNPNAKEFNPRSF E10Q (KSTLNPNAKQFNPRSF),"DMS-derived PSSM value, position E10",[1],0
TLNPNAKEFNPRSFSQ F9T (TLNPNAKETNPRSFSQ),"DMS-derived PSSM value, position F9",[13],0.05894
TLNPNAKEFNPRSF(averaged) R12V (TLNPNAKEFNPVSF),"DMS-derived PSSM value (averaged), position R12",[12],0.08681
TLNPNAKEFNPRSFSQ A6G (TLNPNGKEFNPRSFSQ),"DMS-derived PSSM value, position A6",[14],0
TLNPNAKEFNPRSF(averaged) T1W (WLNPNAKEFNPRSF),"DMS-derived PSSM value (averaged), position T1",[5],0.008583
KSTLNPNAKEFNPRSF R14E (KSTLNPNAKEFNPESF),"DMS-derived PSSM value, position R14",[1],0.01157
TLNPNAKEFNPRSFSQ S15Y (TLNPNAKEFNPRSFYQ),"DMS-derived PSSM value, position S15",[8],0.004758
TLNPNAKEFNPRSF(averaged) P11L (TLNPNAKEFNLRSF),"DMS-derived PSSM value (averaged), position P11",[7],0.01529
KSTLNPNAKEFNPRSF N5L (KSTLLPNAKEFNPRSF),"DMS-derived PSSM value, position N5",[2],0
KSTLNPNAKEFNPRSF E10F (KSTLNPNAKFFNPRSF),"DMS-derived PSSM value, position E10",[1],0
KSTLNPNAKEFNPRSF P6G (KSTLNGNAKEFNPRSF),"DMS-derived PSSM value, position P6",[9],0.01358
TLNPNAKEFNPRSFSQ T1S (SLNPNAKEFNPRSFSQ),"DMS-derived PSSM value, position T1","prey ATXN2, peptide TLNPNAKEFNPRSFSQ, T = wild type",0.004758
KSTLNPNAKEFNPRSF N5Q (KSTLQPNAKEFNPRSF),"DMS-derived PSSM value, position N5",[2],0
TLNPNAKEFNPRSFSQ F9S (TLNPNAKESNPRSFSQ),"DMS-derived PSSM value, position F9",[13],0
KSTLNPNAKEFNPRSF P6T (KSTLNTNAKEFNPRSF),"DMS-derived PSSM value, position P6",[9],0.001755
TLNPNAKEFNPRSFSQ K7H (TLNPNAHEFNPRSFSQ),"DMS-derived PSSM value, position K7",[15],0.02911
KSTLNPNAKEFNPRSF F16E (KSTLNPNAKEFNPRSE),"DMS-derived PSSM value, position F16","prey ATXN2, peptide KSTLNPNAKEFNPRSF, F = wild type",0.01536
TLNPNAKEFNPRSFSQ K7Y (TLNPNAYEFNPRSFSQ),"DMS-derived PSSM value, position K7",[15],0.472
TLNPNAKEFNPRSF(averaged) N3V (TLVPNAKEFNPRSF),"DMS-derived PSSM value (averaged), position N3",[3],0
TLNPNAKEFNPRSF(averaged) S13M (TLNPNAKEFNPRMF),"DMS-derived PSSM value (averaged), position S13",[12],0.01383
TLNPNAKEFNPRSFSQ N3S (TLSPNAKEFNPRSFSQ),"DMS-derived PSSM value, position N3",[11],0.4554
KSTLNPNAKEFNPRSF K9Q (KSTLNPNAQEFNPRSF),"DMS-derived PSSM value, position K9","prey ATXN2, peptide KSTLNPNAKEFNPRSF, K = wild type",0.02634
KSTLNPNAKEFNPRSF N7S (KSTLNPSAKEFNPRSF),"DMS-derived PSSM value, position N7",[2],0.04398
KSTLNPNAKEFNPRSF N12P (KSTLNPNAKEFPPRSF),"DMS-derived PSSM value, position N12",[2],0
TLNPNAKEFNPRSF(averaged) F9I (TLNPNAKEINPRSF),"DMS-derived PSSM value (averaged), position F9",[10],0
TLNPNAKEFNPRSFSQ P4F (TLNFNAKEFNPRSFSQ),"DMS-derived PSSM value, position P4",[4],0.01173
TLNPNAKEFNPRSFSQ A6I (TLNPNIKEFNPRSFSQ),"DMS-derived PSSM value, position A6",[14],0.03549
TLNPNAKEFNPRSFSQ S15M (TLNPNAKEFNPRSFMQ),"DMS-derived PSSM value, position S15",[8],0.1078
KSTLNPNAKEFNPRSF N12L (KSTLNPNAKEFLPRSF),"DMS-derived PSSM value, position N12",[2],0
TLNPNAKEFNPRSFSQ K7Q (TLNPNAQEFNPRSFSQ),"DMS-derived PSSM value, position K7",[15],0.008943
KSTLNPNAKEFNPRSF S15T (KSTLNPNAKEFNPRTF),"DMS-derived PSSM value, position S15",[1],0.007163
